Consider two compounds from US20180077928A1, “INSECT REPELLENT FIBER AND INSECT REPELLENT SCREEN USING SAME” (priority 2015, published 2018).

The conditions of data set [1]: human, over a lifetime without appreciable health risk; WHO and FAO; cited from earlier work.
A short description of data set [2]: Acceptable Daily Intake (ADI) set by WHO and FAO; acceptable intake used in evaluation criteria. More on the design: species or system human. The note with it: person/child who weighs 15 kg, calculated from ADI. As for the experimental part:
When the amount of the insect repellent 4 (permethrin) exposed to the surface of the insect repellent fiber 1 is less than 0.4 μg per gram of the insect repellent fiber 1, the insect repellent effect cannot be sufficiently exerted. […] The WHO and FAO (Food and Agriculture Organization of the United Nations) have investigated harmful effects of permethrin to a human body on the basis of a large amount of data obtained by animal tests and the like. According to the investigation results, the amount of permethrin that can be ingested by human over a lifetime without an appreciable health risk, or also referred to as ADI (Acceptable Daily Intake), is set to “0.05 mg/day/kg”. For example, for people who weigh 15 kg (weight of around a child), this value per day is calculated to be 0.75 mg. This means that permethrin of such an amount may be continually ingested without an appreciable health risk. […]
The safety was evaluated according to the following evaluation criteria by assuming a situation that a child who weighs 15 kg licked a whole area of a screen door in which the insect repellent screen having an area of 1 m^2 was installed. […] It is noted that when the insert repellent screen was evaluated as “good”, the insect repellent screen was determined to be safe.

With `CC1(C)C(C=C(Cl)Cl)C1C(=O)OCc1cccc(Oc2ccccc2)c1` (stereo not drawn) [permethrin], in data set [1], the “ADI (Acceptable Daily Intake)” value is given as 0.05 mg/day/kg. Moreover, the “acceptable intake per day” value in data set [2] is listed as 0.75 mg.
Consider `CCOc1ccc(C(C)(C)COCc2cccc(Oc3ccccc3)c2)cc1` [ethofenprox], for which, in data set [2], the “acceptable intake per day” value is 0.45 mg.
